In this assay the test system is histamine stimulated gastric acid secretion. The experiment in a line: Rat lumen perfused stomach (modified Ghosh and Schild procedure). The assay is classed as in vivo. From the text:
Using a modification of the procedure described by Ghosh and Schild (Br. J. Pharmacology, 13, 54, 1958), ED . values after either intraduodenal (i.d) or intravenous (i.v) administration were obtained as follows: […]

The mark [1] stands for this setting: i.d. (intraduodenal) administration.

We go through 9 molecules from EP0184322A1, “Benzimidazoles” (SMITH KLINE & FRENCH LABORATORIES LIMITED, priority 1984, dated 1986).

A word on the ED50: it is the midpoint of the dose-response relation. Higher therefore signals a need for a large dose. Under setting [1], `COc1ccc2[nH]c([S+]([O-])Cc3ncc(C)c(N(C)C)c3Cl)nc2c1` (stereo not drawn) [Example 16, 2-(4-dimethylamino-3-chloro-5-methyl-2-pyridylmethylsulphi-nyl)-5-methoxy-(1H)-benzimidazole] displayed a 50% effective dose (ED50) of 1.46 µmol/kg.
As to `COc1ccc2[nH]c([S+]([O-])Cc3ncc(C)c(N4CCCCC4)c3Cl)nc2c1` (stereo not drawn) [Example 8, 2-(4-piperidino-3-chloro-5-methyl-2-pyridylmethylsulphinyl)--5-methoxy-(1H)-benzimidazole], the ED50 under setting [1] worked out at 2.38 µmol/kg.
In turn, `COc1ccc2[nH]c([S+]([O-])Cc3nccc(N4CCOCC4)c3Cl)nc2c1` (stereo not drawn) [Example 4, 2-(4-morpholino-3-chloro-2-pyridylmethyl-sulphinyl)-5-methoxy-(1 H)-benzimidazole] registered an ED50 (iv, i.v. administration) of 1.17 µmol/kg.
Consider `COc1ccc2[nH]c([S+]([O-])Cc3cc(N4CCCCC4)c(Br)cn3)nc2c1` (stereo not drawn) [Example 18, 2-(4-piperidino-5-bromo-2-pyridylmethylsulphinyl) - 5-methoxy-(1 H)-benzimidazole], for which the median effective dose (ED50) (iv, i.v. administration) came to 0.85 µmol/kg.
In the case of `COc1ccc2[nH]c([S+]([O-])Cc3nccc(N4CCCCC4)c3Br)nc2c1` (stereo not drawn) [Example 20, 2-(4-piperidino-3-bromo-2-pyridylmethylsulphinyl) - 5-methoxy-(1H)-benzimidazole], it took a dose of 0.86 µmol/kg to reach the 50% effect level (iv, i.v. administration) (ED50).
The molecule `COc1ccc2[nH]c([S+]([O-])Cc3ncc(C)c(N4CCCC4)c3Cl)nc2c1` (stereo not drawn) [Example 14, 2-(4-pyrrolidino-3-chloro-5-methyl-2-pyridylmethylsulphinyl)-5-methoxy-(1 H)-benzimidazole] registered an ED50 (iv, i.v. administration) of 0.82 µmol/kg.
On the same count and under the same terms, the figure for `COc1ccc2[nH]c([S+]([O-])Cc3cc(N)c(Br)cn3)nc2c1` (stereo not drawn) [Example 2, 2-(4-amino-5-bromo-2-pyridylmethylsulphinyl)-5-methoxy-(1-H)-benzimidazole] is 1.46 µmol/kg.
In turn, `COc1ccc2[nH]c([S+]([O-])Cc3ncc(C)c(N4CCOCC4)c3Cl)nc2c1` (stereo not drawn) [Example 6, 2-(4-morpholino-3-chloro-5-methyl-2-pyridylmethylsulphinyl)--5-methoxy-(1H)-benzimidazole] returned an ED50 under setting [1] of 1.94 µmol/kg.
`COc1ccc2[nH]c([S+]([O-])Cc3ncc(Br)c(N4CCCCC4)c3C)nc2c1` (stereo not drawn) [Example 22, 2-(4-piperidino-5-bromo-3-methyl-2-pyridylmethylsulphinyl)--5-methoxy-(1 H)-benzimidazole] showed a median effective dose (ED50) under setting [1] of 4.55 µmol/kg.
